Converted amounts (≈) assume the structure as drawn. Square brackets hold non-standard residues; d marks the D form. Peptide text beside a SMILES is read from it. Dap = NC[C@H](N)C(=O)O
tested on: Acinetobacter baumannii strains resistant to Polymyxin B and Colistin; conditions: strains resistant to Polymyxin B and Colistin, 24 h
Text: The coupling procedure used 5 equivalents of Fmoc-D-amino acid or Fmoc-L-amino acid and HCTU (O-(1H-6-chlorobenzotriazole-1-yl)-1,1,3,3-tetramethyluronium hexafluorophosphate) and 6-Cl-HOBt (1-hydroxy-6-chloro-benztriazole) at 4.5 equivalents in DMF (Fisher Scientific, Denver, Colo.) and N-diisopropylethylamine (DIPEA) 10 equivalents (Oakwood Products, Inc., Estill, S.C.) in N-methyl-2-pyrrolidinone (NMP) (Fisher Scientific, Denver, Colo.) with the first and second couplings at room temperature for 30 min each. The deprotection procedure (removal of Fmoc protecting group) was carried out by treatment of the resin with 0.1 M HOBt (1-hydroxybenzotriazole) in DMF with 20% piperidine for 30 min. […] The resin was removed by filtration and peptide was precipitated with ice-cooled ethyl ether on ice for 15 min. Ether was decanted, the peptide was washed twice with ether and redissolved in acetonitrile/water (1:1, with 0.2% TFA) and the solution lyophilized to obtain the crude peptide. • Analytical and Preparative Purification by Reversed-Phase Chromatography: Analytical RP-HPLC: Column, Luna C18 (2), 250×4.6 mm I.D., 5 μm particle size, 100 Å pore size from Phenomenex (Torrance, Calif.). Run conditions: linear AB gradient (1% acetonitrile/min, starting from 2% acetonitrile) at a flow-rate of 1 ml/min, where eluent A is 0.2% aq. TFA and eluent B is 0.18% TFA in acetonitrile; temperature, 30° C. Preparative RP-HPLC: Peptides were dissolved in 0.2% aq. TFA containing 2% acetonitrile to a final concentration of 10 mg/ml. Following filtration through a 0.45 μm Millipore filter and subsequently through a 0.22 μm filter, the peptide solutions were loaded onto the column via multiple 20-ml injections into a 20-ml injection loop at a flow-rate of 10 ml/min. Column, Luna C18 (2), 250×30 mm I.D., 5 um particle size, 100 Å pore size from Phenomenex. Run conditions: 2% acetonitrile/min gradient up to an acetonitrile concentration 10% below that required to elute the peptide during analytical RP-HPLC, then shallow gradient elution (0.05% or 0.1% acetonitrile/min depending on the complexity of impurities near the product of interest on the analytical run of the crude peptide) at a flow-rate of 10 ml/min (same eluents as shown above for analytical RP-HPLC); at room temperature. • Temperature Profiling of Peptides on Reversed-phase HPLC to Measure Dimerization and Oligomerization: Purified peptides were analyzed on an Agilent 1200 series liquid chromatograph for temperature profiling using a Zorbax 300 SB-C8 column (150 mm×2.1 mm I.D.; 5 μm particle size, 300 Å pore size) from Agilent Technologies. […] Temperature profiling was carried out on peptide mixtures run at each temperature in 2° C. increments from 5° C. to 41° C. and 10° C. increments from 5° C. to 75° C. Twenty minutes was allowed between runs for temperature equilibration. • Characterization of Helical Structure: The mean residue molar ellipticities of peptides were determined by circular dichroism (CD) spectroscopy, using a Jasco J-815 spectropolarimeter (Jasco Inc. Easton, Md., USA) at 5° C. under KP buffer (50 mM NaH2PO4/Na2HPO4/100 mM KCl, pH 7.0) as well as in the presence of an α-helix inducing solvent, 2,2,2-trifluoroethanol, TFE, (50 mM NaH2PO4/Na2HPO4/100 mM KCl, pH 7.0 buffer/50% TFE). A 10-fold dilution of an approximately 500 μM stock solution of the peptide analogs was loaded into a 0.1 cm quartz cell and its ellipticity scanned from 195 to 250 nm.

Which results are given for `CC(=O)N[C@H](CCCCN)C(=O)N[C@H](CC(C)C)C(=O)N[C@H](CCCCN)C(=O)N[C@H](CO)C(=O)N[C@H](CC(C)C)C(=O)N[C@H](CC(C)C)C(=O)N[C@H](CCCCN)C(=O)N[C@@H](C(=O)N[C@H](CC(C)C)C(=O)N[C@H](CO)C(=O)N[C@H](C)C(=O)N[C@H](C)C(=O)N[C@H](CCCCN)C(=O)N[C@H](CCCCN)C(=O)N[C@H](CCCCN)C(=O)N[C@H](CCCCN)C(=O)N[C@H](CC(C)C)C(=O)N[C@H](C)C(=O)N[C@@H](C(=O)N[C@H](CC(C)C)C(=O)N[C@H](CC(C)C)C(=O)N[C@H](CCCCN)C(=O)N[C@H](C)C(=O)N[C@H](CC(C)C)C(=O)N[C@H](CO)C(=O)N[C@H](CCCCN)C(N)=O)[C@H](C)O)[C@H](C)O` [D88(Lys^1-6 Lys-2), Ac-KL(Lys)SLL(Lys)TLSAAK(Lys)(Lys)KLATLL(Lys)ALS(Lys)-amide] (Ac-[dK][dL][dK][dS][dL][dL][dK][dT][dL][dS][dA][dA][dK][dK][dK][dK][dL][dA][dT][dL][dL][dK][dA][dL][dS][dK]-NH2)?
MIC MB9941: 0.7 µM (≈ 2.01 µg/mL); MIC MB9949: 0.7 µM (≈ 2.01 µg/mL); MIC MB9951: 0.3 µM (≈ 0.86 µg/mL); MIC MB9952: 0.3 µM (≈ 0.86 µg/mL); MIC MB9953: 0.3 µM (≈ 0.86 µg/mL); MIC MB9955: 0.3 µM (≈ 0.86 µg/mL); MIC MB9963: 0.4 µM (≈ 1.15 µg/mL)

Which results are given for `CC(=O)N[C@H](CCCCN)C(=O)N[C@H](CC(C)C)C(=O)N[C@@H](CN)C(=O)N[C@H](CO)C(=O)N[C@H](CC(C)C)C(=O)N[C@H](CC(C)C)C(=O)N[C@@H](CN)C(=O)N[C@@H](C(=O)N[C@H](CC(C)C)C(=O)N[C@H](CO)C(=O)N[C@H](C)C(=O)N[C@H](C)C(=O)N[C@H](CCCCN)C(=O)N[C@@H](CN)C(=O)N[C@@H](CN)C(=O)N[C@H](CCCCN)C(=O)N[C@H](CC(C)C)C(=O)N[C@H](C)C(=O)N[C@@H](C(=O)N[C@H](CC(C)C)C(=O)N[C@H](CC(C)C)C(=O)N[C@@H](CN)C(=O)N[C@H](C)C(=O)N[C@H](CC(C)C)C(=O)N[C@H](CO)C(=O)N[C@@H](CN)C(N)=O)[C@H](C)O)[C@H](C)O` [D106(Lys^1-6 Dap-2), Ac-KL(L-Dap)SLL(L-Dap)TLSAAK(L-Dap)(L-Dap)KLATLL(L-Dap)ALS(L-Dap)-amide] (Ac-[dK][dL][Dap][dS][dL][dL][Dap][dT][dL][dS][dA][dA][dK][Dap][Dap][dK][dL][dA][dT][dL][dL][Dap][dA][dL][dS][Dap]-NH2)?
MIC MB9941: 0.8 µM (≈ 2.09 µg/mL); MIC MB9949: 0.8 µM (≈ 2.09 µg/mL); MIC MB9951: 1.5 µM (≈ 3.92 µg/mL); MIC MB9952: 0.8 µM (≈ 2.09 µg/mL); MIC MB9953: 0.8 µM (≈ 2.09 µg/mL); MIC MB9955: 0.4 µM (≈ 1.05 µg/mL); MIC MB9963: 0.8 µM (≈ 2.09 µg/mL)

Which results are given for `CC(=O)N[C@H](CCCCN)C(=O)N[C@H](CC(C)C)C(=O)N[C@H](CCCCN)C(=O)N[C@H](CO)C(=O)N[C@H](CC(C)C)C(=O)N[C@H](CC(C)C)C(=O)N[C@H](CCCCN)C(=O)N[C@@H](C(=O)N[C@H](CC(C)C)C(=O)N[C@H](CO)C(=O)N[C@H](C)C(=O)N[C@H](C)C(=O)N[C@H](CCCCN)C(=O)N[C@H](CCCCN)C(=O)N[C@H](CCCCN)C(=O)N[C@H](CCCCN)C(=O)N[C@H](CC(C)C)C(=O)N[C@H](C)C(=O)N[C@@H](C(=O)N[C@H](CC(C)C)C(=O)N[C@H](CC(C)C)C(=O)N[C@H](CCCCN)C(=O)N[C@H](C)C(=O)N[C@H](CC(C)C)C(=O)N[C@H](CO)C(=O)N[C@H](CO)C(N)=O)[C@H](C)O)[C@H](C)O` [D103(Lys^1Ser^26-5 Lys-2), Ac-KL(Lys)SLL(Lys)TLSAAK(Lys)(Lys)KLATLL(Lys)ALS(Ser)-amide] (Ac-[dK][dL][dK][dS][dL][dL][dK][dT][dL][dS][dA][dA][dK][dK][dK][dK][dL][dA][dT][dL][dL][dK][dA][dL][dS][dS]-NH2)?
MIC MB9941: 0.7 µM (≈ 1.98 µg/mL); MIC MB9949: 0.7 µM (≈ 1.98 µg/mL); MIC MB9951: 0.7 µM (≈ 1.98 µg/mL); MIC MB9952: 0.7 µM (≈ 1.98 µg/mL); MIC MB9953: 0.7 µM (≈ 1.98 µg/mL); MIC MB9955: 0.7 µM (≈ 1.98 µg/mL); MIC MB9963: 0.7 µM (≈ 1.98 µg/mL)
